Test results taken from patent US20070293399A1, “SUBSTITUTED DIAMINO-1,3,5-TRIAZINES, PROCESSES FOR THEIR PREPARATION AND THEIR USE AS HERBICIDES AND CROP GROWTH REGULATORS” (Bayer CropScience AG, priority 2006, published 2007).

Legend:
[1] = system: Sinapis alba, Echinochloa crus-galli, Lolium multiflorum, Stellaria media, Cyperus iria, Amaranthus retroflexus, Setaria viridis, Avena sativa, Lamium …; experiment: Post-emergence herbicidal action (greenhouse pot test); assay type: in vivo; conditions: application rate of 1 kg and less of active substance per hectare; treated at three-leaf stage; scored visually after approx. 3 to 4 weeks in comparison to untreated controls
Description: Seeds or rhizome pieces of mono- and dicotyledonous weeds were placed in sandy loam in plastic pots, covered with soil and grown in a greenhouse under good growth conditions. Three weeks after the sowing, the test plants were treated at the three-leaf stage. The inventive compounds formulated as spray powders or as emulsion concentrates were sprayed onto the green plant parts in various dosages with an application rate of from 600 to 800 l/ha of water (converted). After the test plants had been left to stand in the greenhouse under optimal growth conditions for approx. 3 to 4 weeks, the action of the preparations was scored visually in comparison to untreated controls. The inventive compositions also had good post-emergence herbicidal activity against a wide spectrum of economically important gramineous and broadleaf weeds.

[2] = system: Stellaria media, Lolium multiflorum, Amaranthus retroflexus, Sinapis alba, Avena sativa and Setaria viridis; experiment: Pre-emergence herbicidal action (greenhouse pot test); assay type: in vivo; conditions: application rate of 1 kg or less of active substance per hectare; scored visually after 3 to 4 weeks in comparison to untreated controls
From the text: Seeds or rhizome pieces of mono- and dicotyledonous weed plants were placed in sandy loam in plastic pots and covered with soil. The inventive compounds, which have been formulated in the form of wettable powders or emulsion concentrates, were then applied to the surface of the covering soil as an aqueous suspension or emulsion in different dosages with an application rate of from 600 to 800 l/ha of water (converted).

Compound | herbicidal action against harmful plants in the post-emergence method [1] | herbicidal action against harmful plants in the pre-emergence method [2]
C[C@@H](F)c1nc(NCCC#N)nc(N[C@@H]2CCCc3ccccc32)n1 [Compound 2.38, 3-({4-[(1R)-1-Fluoroethyl]-6-[(1R)-1,2,3,4-tetrahydronaphth-1-ylamino]-1,3,5-triazin-2-yl}amino)propanenitrile] | very good herbicidal action | very good herbicidal action
C[C@@H](F)c1nc(N[C@@H]2CCCc3ccccc32)nc(N(CCC#N)CCC#N)n1 [Compound 2.39, 3,3′-({4-[(1R)-1-Fluoroethyl]-6-[(1R)-1,2,3,4-tetrahydronaphth-1-ylamino]-1,3,5-triazin-2-yl}imino)dipropanenitrile] | very good herbicidal action | very good herbicidal action
Cc1ccc2c(c1)[C@H](Nc1ncnc(NC(=O)NC(C)(C)C)n1)[C@@H](C)C2 [Compound 2.43, N-(Tert-butyl)-N′-(4-{[(1R,2S)-2,6-dimethyl-2,3-dihydro-1H-inden-1-yl]amino}-1,3,5triazin-2-yl)urea] | very good herbicidal action | very good herbicidal action
Cc1ccc(NC(=O)Nc2nc(N[C@@H]3CCCc4ccccc43)nc([C@@H](C)F)n2)cc1 [Compound 2.59] | very good herbicidal action | very good herbicidal action
Cc1ccc(NC(=O)Nc2ncnc(NC3c4cc(C)ccc4CC3C)n2)cc1 (stereo not drawn) [Compound 2.60] | very good herbicidal action | very good herbicidal action
Cc1ccc2c(c1)C(Nc1nc(NC(=O)C3CC3)nc(C(C)F)n1)C(C)C2 (stereo not drawn) [Compound 2.67] | very good herbicidal action | very good herbicidal action
C[C@@H](F)c1nc(NC(=O)C2CC2)nc(N[C@@H]2CCCc3ccccc32)n1 [Compound 2.68] | very good herbicidal action | very good herbicidal action
Cc1ccc2c(c1)C(Nc1ncnc(NC(=O)C3CC3)n1)C(C)C2 (stereo not drawn) [Compound 2.75] | very good herbicidal action | very good herbicidal action
Cc1ccc2c(c1)C(Nc1nc(NC(=S)NC(C)(C)C)nc(C(C)F)n1)C(C)C2 (stereo not drawn) [Compound 2.76] | very good herbicidal action | very good herbicidal action
Cc1ccc2c(c1)C(Nc1nc(NC(=O)NC(C)C)nc(C(C)F)n1)C(C)C2 (stereo not drawn) [Compound 2.78] | very good herbicidal action | very good herbicidal action
CCCCNC(=O)Nc1nc(NC2c3cc(C)ccc3CC2C)nc(C(C)F)n1 (stereo not drawn) [Compound 2.87] | very good herbicidal action | very good herbicidal action
CCCCCCNC(=O)Nc1nc(NC2c3cc(C)ccc3CC2C)nc(C(C)F)n1 (stereo not drawn) [Compound 2.88] | very good herbicidal action | very good herbicidal action
Cc1ccc2c(c1)C(Nc1nc(NC(=O)NC3CCCC3)nc(C(C)F)n1)C(C)C2 (stereo not drawn) [Compound 2.101] | very good herbicidal action | very good herbicidal action
Cc1ccc2c(c1)C(Nc1nc(NC(=O)NCc3ccccc3)nc(C(C)F)n1)C(C)C2 (stereo not drawn) [Compound 2.103] | very good herbicidal action | very good herbicidal action
COCCNC(=O)Nc1nc(NC2c3cc(C)ccc3CC2C)nc(C(C)F)n1 (stereo not drawn) [Compound 2.104] | very good herbicidal action | very good herbicidal action
COC(C)(C)CNC(=O)Nc1nc(NC2c3cc(C)ccc3CC2C)nc(C(C)F)n1 (stereo not drawn) [Compound 2.105] | very good herbicidal action | very good herbicidal action
CCOC(CNC(=O)Nc1nc(NC2c3cc(C)ccc3CC2C)nc(C(C)F)n1)OCC (stereo not drawn) [Compound 2.106] | very good herbicidal action | very good herbicidal action
CCOC(=O)CNC(=O)Nc1nc(NC2c3cc(C)ccc3CC2C)nc(C(C)F)n1 (stereo not drawn) [Compound 2.111] | very good herbicidal action | very good herbicidal action
COC(C)(C)CNC(=S)Nc1nc(NC2c3cc(C)ccc3CC2C)nc(C(C)F)n1 (stereo not drawn) [Compound 2.114] | very good herbicidal action | very good herbicidal action
Cc1ccc2c(c1)C(Nc1nc(NC(=O)Nc3ccccc3)nc(C(C)F)n1)C(C)C2 (stereo not drawn) [Compound 2.115] | very good herbicidal action | very good herbicidal action
Cc1ccc(NC(=O)Nc2nc(NC3c4cc(C)ccc4CC3C)nc(C(C)F)n2)cc1 (stereo not drawn) [Compound 2.116] | very good herbicidal action | very good herbicidal action
Cc1ccc2c(c1)C(Nc1nc(NC(=O)Nc3ccc(F)cc3)nc(C(C)F)n1)C(C)C2 (stereo not drawn) [Compound 2.117] | very good herbicidal action | very good herbicidal action
COc1ccc(NC(=O)Nc2nc(NC3c4cc(C)ccc4CC3C)nc(C(C)F)n2)cc1 (stereo not drawn) [Compound 2.122] | very good herbicidal action | very good herbicidal action
Cc1ccc2c(c1)C(Nc1nc(NC(=S)Nc3ccccc3)nc(C(C)F)n1)C(C)C2 (stereo not drawn) [Compound 2.127] | very good herbicidal action | very good herbicidal action
Cc1ccc(NC(=S)Nc2nc(NC3c4cc(C)ccc4CC3C)nc(C(C)F)n2)cc1 (stereo not drawn) [Compound 2.128] | very good herbicidal action | very good herbicidal action
Cc1ccc2c(c1)C(Nc1nc(NC(=S)Nc3ccc(F)cc3)nc(C(C)F)n1)C(C)C2 (stereo not drawn) [Compound 2.129] | very good herbicidal action | very good herbicidal action
COc1ccc(NC(=S)Nc2nc(NC3c4cc(C)ccc4CC3C)nc(C(C)F)n2)cc1 (stereo not drawn) [Compound 2.130] | very good herbicidal action | very good herbicidal action
